The source of these data is publication PMC8218592 (Journal of medicinal chemistry, 2019).

Test [1] has as its system ERAP1 T350A.
Test [2] concerns the target T1, ERAP1 (Homo sapiens, UniProt Q9NZ08). As to the kind of experiment: ERAP1 WK10. It is filed as biochemical. As to conditions: Figure 3B.
Test [3] concerns the target T1, ERAP1. As to the kind of experiment: ERAP1 L-pNA hydrolysis mode of action kinetics. Type of test: biochemical.
The target of test [4] is T2, IRAP (Mus musculus, UniProt Q8C129).
T2 sequence (Q8C129 132-1025 limits assumed): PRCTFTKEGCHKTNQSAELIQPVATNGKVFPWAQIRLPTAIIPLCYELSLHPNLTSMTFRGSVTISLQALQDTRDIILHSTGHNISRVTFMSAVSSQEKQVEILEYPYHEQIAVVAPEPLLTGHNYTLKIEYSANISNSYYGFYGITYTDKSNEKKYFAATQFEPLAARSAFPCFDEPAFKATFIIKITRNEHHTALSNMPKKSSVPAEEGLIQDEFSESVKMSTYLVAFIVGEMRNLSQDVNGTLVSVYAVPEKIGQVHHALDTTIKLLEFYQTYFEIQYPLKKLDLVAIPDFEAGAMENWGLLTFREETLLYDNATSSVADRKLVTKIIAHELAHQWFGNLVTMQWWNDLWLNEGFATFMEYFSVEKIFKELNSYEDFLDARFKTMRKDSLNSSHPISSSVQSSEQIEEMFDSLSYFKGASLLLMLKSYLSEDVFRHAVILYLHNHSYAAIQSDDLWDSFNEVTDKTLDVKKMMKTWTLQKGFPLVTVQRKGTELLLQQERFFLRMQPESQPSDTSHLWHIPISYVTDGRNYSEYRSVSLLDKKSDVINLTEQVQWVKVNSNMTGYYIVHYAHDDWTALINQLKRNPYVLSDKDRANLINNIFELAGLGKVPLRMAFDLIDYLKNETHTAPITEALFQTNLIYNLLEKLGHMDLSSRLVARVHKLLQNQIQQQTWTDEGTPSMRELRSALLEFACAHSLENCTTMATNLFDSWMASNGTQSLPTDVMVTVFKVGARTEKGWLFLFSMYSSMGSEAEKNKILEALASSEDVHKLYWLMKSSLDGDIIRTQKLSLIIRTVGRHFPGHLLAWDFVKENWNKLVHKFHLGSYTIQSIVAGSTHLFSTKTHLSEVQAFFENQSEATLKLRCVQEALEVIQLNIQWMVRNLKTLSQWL
As to the kind of experiment: IRAP L-AMC hydrolysis assay. It is filed as biochemical.

Test [5] addresses T1, ERAP1. Description: ERAP1 LF9 peptide hydrolysis coupled-enzyme assay, mode of action. It is filed as biochemical. As to conditions: LF9 peptide substrate.
For test [6], the system named is ERAP1 allele II. As to the kind of experiment: L-AMC hydrolysis assay with ERAP1 allelic variant allele II. Type of test: biochemical, human. As to conditions: disease-associated allele II (528K).
The subject of test [7] is ERAP1 K551A. As to the kind of experiment: L-AMC activation assay with mutant ERAP1 K551A. Type of test: biochemical, human.
In test [8] the target is T1, ERAP1. Description: ERAP1 L-AMC hydrolysis assay. It is filed as biochemical.

T1 sequence (Q9NZ08 22-941): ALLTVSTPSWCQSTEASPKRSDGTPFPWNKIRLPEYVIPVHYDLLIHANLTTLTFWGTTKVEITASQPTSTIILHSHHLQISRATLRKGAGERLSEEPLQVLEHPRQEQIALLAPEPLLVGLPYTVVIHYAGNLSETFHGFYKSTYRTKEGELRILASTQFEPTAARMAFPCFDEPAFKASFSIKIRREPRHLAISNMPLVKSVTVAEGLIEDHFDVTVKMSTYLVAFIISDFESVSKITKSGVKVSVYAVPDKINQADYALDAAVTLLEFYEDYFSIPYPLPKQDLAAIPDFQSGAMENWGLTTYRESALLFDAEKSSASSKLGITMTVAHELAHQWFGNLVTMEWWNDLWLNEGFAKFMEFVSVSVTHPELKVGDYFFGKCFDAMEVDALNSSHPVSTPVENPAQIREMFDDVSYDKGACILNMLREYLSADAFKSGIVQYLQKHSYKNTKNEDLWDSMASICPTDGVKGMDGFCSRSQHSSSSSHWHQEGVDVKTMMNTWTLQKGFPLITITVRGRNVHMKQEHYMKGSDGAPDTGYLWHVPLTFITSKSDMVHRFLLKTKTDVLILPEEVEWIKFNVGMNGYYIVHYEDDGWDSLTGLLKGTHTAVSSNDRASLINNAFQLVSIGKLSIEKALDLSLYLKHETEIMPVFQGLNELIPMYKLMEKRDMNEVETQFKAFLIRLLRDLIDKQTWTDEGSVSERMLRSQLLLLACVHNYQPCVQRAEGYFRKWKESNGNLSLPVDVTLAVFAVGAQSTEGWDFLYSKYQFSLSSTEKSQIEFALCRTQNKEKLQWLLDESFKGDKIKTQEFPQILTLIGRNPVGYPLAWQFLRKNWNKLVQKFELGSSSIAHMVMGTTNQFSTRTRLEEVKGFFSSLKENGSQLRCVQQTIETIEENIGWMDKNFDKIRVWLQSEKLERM

As for `N=C(NCCc1c[nH]c2ccccc12)NS(=O)(=O)c1cc(F)ccc1F` [Compound 1, N-(N-(2-(1H-Indol-3-yl)ethyl)carbamimidoyl)-2,5-difluorobenzenesulfonamide], the “change in potency for mutant ERAP1 (L-AMC inhibition)” value in test [1] is on record as “small reduction in potency”. In addition, the “effect on WK10 peptide hydrolysis” value in test [2] is “inhibited peptide hydrolysis in a dose-dependent manner”. The mode of inhibition result in test [3] (L-pNA substrate) is “competitive”.

What is called IC50 is the concentration that gives 50% inhibition. A lower IC50 goes with higher potency. As to `CC(=O)N1CCN(C(=O)C2(NC(=O)Nc3ccc(C)cc3)CCCCC2)CC1` [Compound 2, 1-(1-(4-Acetylpiperazine-1-carbonyl)cyclohexyl)-3-(p-tolyl)urea], in test [4], the IC50 is more than 200 µM.

Take `COc1ccc(C(=O)O)cc1S(=O)(=O)Nc1cc(C(F)(F)F)ccc1N1CCCCC1` [Compound 3, 4-Methoxy-3-(N-(2-(piperidin-1-yl)-5-(trifluoromethyl)phenyl)sulfamoyl)benzoic acid]: the mode of inhibition entry in test [5] was “competitive”. In test [6], the “L-AMC AC50 for ERAP1 allele II” value is “sub-micromolar”. In test [7], the “effect of mutation on L-AMC AC50” value was “substantial effect”. In test [2], the “effect on WK10 peptide hydrolysis” value is given as “inhibited peptide hydrolysis in a dose-dependent manner”. The “increase of L-pNA hydrolysis activity (Vmax/Khalf)” value in test [3] (over the concentration range tested) was “up to 1.8 fold”. The same compound registered a half-maximal inhibitory concentration (IC50) in test [4] of more than 200 µM. The “effect on IRAP activity” value in test [4] (Figure 2C) was “no detectable effect”.

In test [4], `CC(=O)N1CCN(C(=O)C2(NC(=O)Nc3ccc(Cl)cc3)CCCCC2)CC1` [Compound 16, 1-(1-(4-Acetylpiperazine-1-carbonyl)cyclohexyl)-3-(4-chlorophenyl)urea] yielded an IC50 of more than 200 µM.

Regarding `COc1ccc(NC(=O)NC2(C(=O)N3CCN(C(C)=O)CC3)CCCCC2)cc1` [Compound 17, 1-(1-(4-Acetylpiperazine-1-carbonyl)cyclohexyl)-3-(4-methoxyphenyl)urea], in test [4], the half-maximal inhibitory concentration (IC50) was more than 200 µM.

In test [4], `CC(=O)N1CCN(C(=O)C2(NC(=O)Nc3ccc(F)cc3)CCCCC2)CC1` [Compound 18, 1-(1-(4-Acetylpiperazine-1-carbonyl)cyclohexyl)-3-(4-fluorophenyl)urea] gave a 50% inhibitory concentration (IC50) of more than 200 µM.

For `CC(=O)N1CCN(C(=O)C2(NC(=O)Nc3ccccc3)CCCCC2)CC1` [Compound 19, 1-(1-(4-Acetylpiperazine-1-carbonyl)cyclohexyl)-3-phenylurea], in test [4], the IC50 is more than 200 µM.

For `Cc1ccc(NC(=O)NC2(C(=O)N3CCOCC3)CCCCC2)cc1` [Compound 20, 1-(1-(Morpholine-4-carbonyl)cyclohexyl)-3-(p-tolyl)urea], the “activity in ERAP1 L-AMC hydrolysis assay” value in test [8] is on record as “no detectable inhibitory activity”. Besides, in test [4], the IC50 is more than 200 µM.

As to `Cc1ccc(NC(=O)NC2(C(=O)N3CCN(c4ccccc4)CC3)CCCCC2)cc1` [Compound 21, 1-(1-(4-Phenylpiperazine-1-carbonyl)cyclohexyl)-3-(p-tolyl)urea], the “activity in ERAP1 L-AMC hydrolysis assay” value in test [8] is reported as “no detectable inhibitory activity”. Besides, in test [4], the IC50 was more than 200 µM.

The compound `CC(=O)N1CCN(C(=O)C(C)(C)NC(=O)Nc2ccc(C)cc2)CC1` [Compound 22, 1-(1-(4-Acetylpiperazin-1-yl)-2-methyl-1-oxopropan-2-yl)-3-(p-tolyl)urea] had a concentration for half-maximal inhibition (IC50) in test [4] of more than 200 µM.

Regarding `CC(=O)N1CCN(C(=O)C2(NC(=O)Nc3ccc(C)cc3)CC2)CC1` [Compound 23, 1-(1-(4-Acetylpiperazine-1-carbonyl)cyclopropyl)-3-(p-tolyl)urea], in test [4], the half-inhibitory concentration (IC50) was more than 200 µM.
